# Laboratory results from US9469608B2, “Thrombin inhibitors” (Merck Sharp & Dohme Corp., priority 2012, dated 2016).
# Molecular target: human α-thrombin (Homo sapiens (Human), UniProt P00734)
# Assay: In vitro assay for determining proteinase inhibition (thrombin Ki)
# Assay type: biochemical
# Details: not given
# Experimental: NMR determinations were made using 400 MHz field strength. Ki data was obtained according to the procedure described in Lewis, et al. Thromb. […] Reactions sensitive to moisture or air were performed under nitrogen or argon using anhydrous solvents and reagents. […] Typically, the analytical LC-MS system used consisted of a Waters ZQ platform with electrospray ionization in positive ion detection mode with an Agilent 1100 series HPLC with autosampler. The column was usually a Water Xterra MS C18, 3.0×50 mm, 5 μm. The flow rate was 1 mL/min, and the injection volume was 10 μL. UV detection was in the range 210-400 nm. […] Preparative HPLC purifications were usually performed using a mass spectrometry directed system. […] The mobile phases consisted of mixtures of acetonitrile (10-100%) in water containing 0.1% TFA. Flow rates were maintained at 50 mL/min, the injection volume was 1800 μL, and the UV detection range was 210-400 nm. Mobile phase gradients were optimized for the individual compounds. Reactions performed using microwave irradiation were normally carried out using an Emrys Optimizer manufactured by Personal Chemistry, or an Initiator manufactured by Biotage. Concentration of solutions was carried out on a rotary evaporator under reduced pressure. Flash chromatography was usually performed using a Biotage Flash Chromatography apparatus (Dyax Corp.) on silica gel ([…], 60 Å pore size) in pre-packed cartridges of the size noted. ^1H NMR spectra were acquired at 500 MHz spectrometers in CDCl3 solutions unless otherwise noted. Chemical shifts were reported in parts per million (ppm). Tetramethylsilane (TMS) was used as internal reference in CD3Cl solutions, and residual CH3OH peak or TMS was used as internal reference in CD3OD solutions. Coupling constants (J) were reported in hertz (Hz). Chiral analytical chromatography was performed on one of Chiralpak AS, Chiralpak AD, Chiralcel OD, Chiralcel IA, or Chiralcel OJ columns (250×4.6 mm) (Daicel Chemical Industries, Ltd.) with noted percentage of either ethanol in hexane (% Et/Hex) or isopropanol in heptane (% IPA/Hep) as isocratic solvent systems. Chiral preparative chromatography was conducted on one of Chiralpak AS, Chiralpak AD, Chiralcel OD, Ciralcel IA, or Chiralcel OJ columns (20×250 mm) (Daicel Chemical Industries, Ltd.) with desired isocratic solvent systems identified on chiral analytical chromatography or by supercritical fluid (SFC) conditions. Celite® (Fluka) diatomite is diatomaceous earth, and can be referred to as “celite”.
# Relevant in vitro assays are referenced in Morrissette, et al., Bioorg. […] The assays were carried out at 25° C. in 0.05 M TRIS buffer pH 7.4, 0.15 M NaCl, 0.1% PEG. Trypsin assays also contained 1 mM CaC12.
# Concentrations of stock solutions of Z-GPR-afc were determined from measurements of absorbance at 380 nm of the 7-amino-4-trifluoromethyl coumarin produced upon complete hydrolysis of an aliquot of the stock solution by thrombin.
# Activity assays were performed by diluting a stock solution of substrate at least tenfold to a final concentration ≦0.1 Km into a solution containing enzyme or enzyme equilibrated with inhibitor. Times required to achieve equilibration between enzyme and inhibitor were determined in control experiments. Initial velocities of product formation in the absence (Vo) or presence of inhibitor (Vi) were measured. Assuming competitive inhibition, and that unity is negligible compared Km/[S], [I]/e, and [I]/e (where [S], [I], and e respectively represent the total concentrations, of substrate, inhibitor and enzyme), the equilibrium constant (Ki) for dissociation of the inhibitor from the enzyme can be obtained from the dependence of Vo/Vi on [I] shown in the following equation.
row,SMILES,Ki
1,"NCc1ccc(Cl)cc1CNC(=O)[C@@H]1CCCN1C(=O)c1cc(-c2ccncc2)c[nH]1 [Compound 13-10, (S)—N-{2-(Aminomethyl)-5-chlorobenzyl)-1-{4-(pyridin-4-yl)-1H-pyrrole-2-carbonyl) pyrrolidine-2-carboxamide-bis(2,2,2-trifluoroacetate)]",3.4 nM
2,"NCc1ccc(Cl)cc1CNC(=O)[C@@H]1CCCN1C(=O)C1(O)CCc2ncccc21 (stereo partly drawn) [Compound 19-4, (2S)-N-{2-(Aminomethyl)-5-chlorobenzyl}-1-(5-hydroxy-6,7-dihydro-5H-cyclopenta[b]pyridine-5-carbonyl)pyrrolidine-2-carboxamide-2,2,2-trifluoroacetate]",49 nM
3,"NCc1ccc(Cl)cc1CNC(=O)[C@@H]1CCCN1C(=O)C1CNc2ccccc21 (stereo partly drawn) [Compound 25-5, (2S)-N-{2-(Aminomethyl)-5-chlorobenzyl}-1-(indoline-3-carbonyl)pyrrolidine-2-carboxamide bis(2,2,2-trifluoroacetate)]",59 nM
4,"NCc1ccc(Cl)cc1CNC(=O)[C@@H]1CCN1C(=O)C1(O)CCc2ncccc21 (stereo partly drawn) [Compound 26-12, (2S)-N-{2-(Aminomethyl)-5-chlorobenzyl}-1-(5-hydroxy-6,7-dihydro-5H-cyclopenta[b]pyridine-5-carbonyl)azetidine-2-carboxamide bis(2,2,2-trifluoroacetate)]",325 nM

# Same assay, conditions: 25° C., 0.05 M TRIS buffer pH 7.4, 0.15 M NaCl, 0.1% PEG; competitive inhibition assumed
row,SMILES,Ki
1,"CC(C)(C)[C@@H](CCO)C(=O)N1CCC[C@H]1C(=O)NCc1cc(Cl)ccc1CN [Compound 1-12, (S)—N-[2-(Aminomethyl)-5-chlorobenzyl]-1-[(R)-2-(2-hydroxyethyl)-3,3-dimethylbutanoyl]pyrrolidine-2-carboxamide-2,2,2-trifluoroacetate]",25 nM
2,"CCOC(=O)c1ccc(C(=O)N2CCC[C@H]2C(=O)NCc2cc(Cl)ccc2CN)[nH]1 [Compound 3-5, (S)-Ethyl-5-[2-{(2-(aminomethyl)-5-chlorobenzyl)carbamoyl}-pyrrolidine-1-carbonyl]-1H-pyrrole-2-carboxylate-2,2,2-trifluoroacetate]",47 nM
3,"NCc1ccc(Cl)cc1CNC(=O)[C@@H]1CCCN1C(=O)c1cc(C(O)c2ccncc2)c[nH]1 (stereo partly drawn) [Compound 6-2, (2S)-N-{2-(Aminomethyl)-5-chlorobenzyl}-1-[4-{hydroxyl(pyridine-4-yl)methyl}-1H-pyrrole-2-carbonyl]pyrrolidine-2-carboxamide-bis(2,2,2-trifluoroacetate)]",21 nM
4,"NCc1ccc(Cl)cc1CNC(=O)[C@@H]1CCCN1C(=O)c1cc(Cc2ccncc2)c[nH]1 [Compound 7-1, (S)—N-{2-(Aminomethyl)-5-chlorobenzyl}-1-{4-(pyridin-4-ylmethyl)-1H-pyrrole-2-carbonyl}pyrrolidine-2-carboxamide-bis(2,2,2-trifluoroacetate)]",17 nM
5,"NCc1ccc(Cl)cc1CNC(=O)[C@@H]1CCCN1C(=O)c1cc(C(=O)c2cccnc2)c[nH]1 [Compound 8-8, (S)—N-{2-(aminomethyl)-5-chlorobenzyl}-1-(4-nicotinoyl-1H-pyrrole-2-carbonyl)pyrrolidine-2-carboxamide-bis(2,2,2-trifluoro acetate]",18 nM
6,"NCc1ccc(Cl)cc1CNC(=O)[C@@H]1CCCN1C(=O)c1cc(C(O)c2cccnc2)c[nH]1 (stereo partly drawn) [Compound 9-2, (2S)-N-{2-(Aminomethyl)-5-chlorobenzyl}-1-[4-{hydroxy(pyridine-3-yl)methyl}-1H-pyrrole-2-carbonyl]pyrrolidine-2-carboxamide]",13 nM
7,"NCc1ccc(Cl)cc1CNC(=O)[C@@H]1CCCN1C(=O)c1cc(C(O)c2ccccn2)c[nH]1 (stereo partly drawn) [Compound 11-2, (2S)-N-{2-(Aminomethyl)-5-chlorobenzyl}-1-[4-{hydroxyl(pyridine-2-yl)methyl}-1H-pyrrole-2-carbonyl]pyrrolidine-2-carboxamide]",9.7 nM
8,"CC(C)(C)[C@@H](O)C(=O)N1CCC[C@H]1C(=O)NCc1cc(Cl)ccc1CO [Compound 17-5, (S)—N-{5-Chloro-2-(hydroxymethyl)benzyl}-1-{(R)-2-hydroxy-3,3-dimethylbutanoyl}pyrrolidine-2-carboxamide]",3500 nM
9,"NCc1ccc(Cl)cc1CNC(=O)[C@@H]1CCCN1C(=O)C1(O)CCc2cccnc21 (stereo partly drawn) [Compound 20-8, (2S)-N-(2-(Aminomethyl)-5-chlorobenzyl)-1-(7-hydroxy-6,7-dihydro-5H-cyclopenta[b]pyridine-7-carbonyl)pyrrolidine-2-carboxamide-bis(2,2,2-trifluoroacetate)]",7.7 nM
10,NCc1ccc(Cl)cc1CNC(=O)[C@@H]1CCCN1C(=O)C1(O)CCc2cnccc21 (stereo partly drawn) [Compound 27-9],20 nM
11,"NCc1ccc(Cl)cc1CNC(=O)[C@@H]1CCCN1C(=O)C1(O)CCc2ccncc21 (stereo partly drawn) [Compound 28-6, (2S)-N-{2-(aminomethyl)-5-chlorobenzyl}-1-(7-hydroxy-6,7-dihydro-5H-cyclopenta[c]pyridine-7-carbonyl)pyrrolidine-2-carboxamide bis (2,2,2-trifluoroacetate)]",16 nM

# Next, values leading:
row,Ki,SMILES
1,77 nM,"NCc1ccc(Cl)cc1CNC(=O)[C@@H]1CCCN1C(=O)C1NCc2ccccc21 (single isomer, unassigned) [Compound 23-4a, bis(2,2,2-trifluoroacetate)]"
2,1.1 nM,"NCc1ccc(Cl)cc1CNC(=O)[C@@H]1CCCN1C(=O)C1NCc2ccccc21 (single isomer, unassigned) [Compound 23-4b, bis(2,2,2-trifluoroacetate)]"
3,27 nM,"NCc1ccc(Cl)cc1CNC(=O)[C@@H]1CCCN1C(=O)c1ccc(C(F)(F)F)[nH]1 [Compound 4-5, (S)—N-{2-(Aminomethyl)-5-chlorobenzyl}-1-{5-(trifluoromethyl)-1H-pyrrole-2-carbonyl}pyrrolidine-2-carboxamide]"
4,17 nM,"NCc1ccc(Cl)cc1CNC(=O)[C@@H]1CCCN1C(=O)c1cc(C(=O)c2ccccn2)c[nH]1 [Compound 10-7, (S)—N-{2-(Aminomethyl)-5-chlorobenzyl}-1-(4-picolinoyl-1H-pyrrole-2-carbonyl) pyrrolidine-2-carboxamide-bis(2,2,2-trifluoroacetate)]"
5,22 nM,"NCc1ccc(Cl)cc1CNC(=O)[C@@H]1CCCN1C(=O)c1cc(-c2cccnc2)c[nH]1 [Compound 14-5, (S)—N-{2-(Aminomethyl)-5-chlorobenzyl}-1-{4-(pyridin-3-yl)-1H-pyrrole-2-carbonyl}pyrrolidine-2-carboxamide bis(2,2,2-trifluoroacetate)]"
6,22 nM,"NCc1ccc(Cl)cc1CNC(=O)[C@@H]1CCCN1C(=O)c1cc(-c2ccccn2)c[nH]1 [Compound 15-8, (S)—N-[{2-(Aminomethyl)-5-chlorobenzyl}-1-{4-(pyridin-2-yl)-1H-pyrrole-2-carbonyl}]pyrrolidine-2-carboxamide bis (2,2,2-trifluoroacetate)]"
7,15 nM,"NCc1ccc(Cl)cc1CNC(=O)[C@@H]1CCCN1C(=O)C1OCc2ccccc21 (stereo partly drawn) [Compound 21-6, (2S)-N-{2-(Aminomethyl)-5-chlorobenzyl}-1-(1,3-dihydroisobenzofuran-1-carbonyl)pyrrolidine-2-carboxamide-2,2,2-trifluoroacetate]"
8,400 nM,"NCc1ccc(Cl)cc1CNC(=O)[C@@H]1CCCN1C(=O)C1c2ccccc2CS1(=O)=O (stereo partly drawn) [Compound 22-10, (2S)-N-{2-(Aminomethyl)-5-chlorobenzyl}-1-(2,2-dioxido-1,3-dihydrobenzo[a]thiophene-1-carbonyl)pyrrolidine-2-carboxamide-2,2,2-trifluoroacetate-2,2,2-trifluoroacetate]"
9,9.2 nM,"NCc1ccc(Cl)cc1CNC(=O)[C@@H]1CCCN1C(=O)C1COc2ccccc21 (stereo partly drawn) [Compound 24-8, (2S)-N-{2-(Aminomethyl)-5-chlorobenzyl}-1-(2,3-dihydrobenzofuran-3-carbonyl)pyrrolidine-2-carboxamide-2,2,2-trifluoroacetate]"
